Reference: patent US6358688B1, “Immortalized human middle ear epithelial cell lines” (House Ear Institute, priority 1999, dated 2002)
One block for each molecule: values may come before it.

Key:
[1] = system: HPV-transformed human middle ear epithelial cell line HMEEC-1; assay: G418 selection of cultured cells; type: cell-based; settings: G418 0.4 mg/ml, 2 and 7 days post addition
Procedure: (§1) Passage 3 human middle ear epithelial cell cultures (at 50-70% confluence) were infected with 1 ml of virus stock diluted in 9 ml of fresh SFM-HG for 48 hours. The virus was then removed and the medium was replaced with fresh SFM-HG. The cells were allowed to proliferate and once at 70% confluence, they were trypsinized and re-seeded in fresh SFM-HG medium containing G418 (Gibco-BRL, Gaithersburg, […].) at a concentration of 0.4 mg/ml.
(§2) Cells were photographed prior to selection, at 2 days and at 7 days post G418 addition (panels, a, b and c, respectively). […]

[2] = system: primary human middle ear epithelial cells; assay: G418 selection of cultured cells; type: cell-based; settings: 2 and 7 days post G418 addition
Procedure: as §1, §2

[3] = system: MUC2 mRNA; assay: RT-PCR of mucin mRNA expression after retinoic acid; type: cell-based, human; settings: primary cultures
Procedure: Polymerase chain reaction (PCR) assays were performed essentially following the package insert of the commercially available Gene-Amp kit (document No. 55635-6/89, available from Perkin-Elmer/Cetus, Emeryville, Calif.). The following reagents were mixed in a 0.5 mL polypropylene tube and used in performing PCR:
After mixing, the reaction mixture was overlayed with a drop of mineral oil to 30 cycles of PCR, with the following cycle profile: 30 second denaturation, 1 minute annealing and 2 minute extension. The PCR products were run on a 1.2% TAE agarose gel.
Expression of various genes was confirmed using the following PCR primers specific for: […]

[4] = system: MEK1/2 (MAPK kinase); assay: Assay for MEK (phospho-MEK1/2 antibody detection); type: cell-based, human; settings: HMEEC-1 cells treated for 5, 15 and 45 minutes
Procedure: Cells were treated with IL-1 alpha for 5, 15 and 45 minutes. The MEK assay was done according to the manufacturer's protocol (PhosphoPlus, MEK1/2 Antibody Kit; New England BioLabs, Beverly, Mass.). Antibodies specific to the phosphorylated (phospho-MEK1/2) and unphosphorylated (MEK1/2) MEK protein were used to distinguish between the phosphorylated and unphosphorylated forms of the protein.

Molecule: CN[C@@H]1[C@@H](O)[C@@H](O[C@@H]2[C@@H](O)[C@H](O[C@H]3O[C@H]([C@@H](C)O)[C@@H](O)[C@H](O)[C@H]3N)[C@@H](N)C[C@H]2N)OC[C@]1(C)O [G418]
Response of cells to G418 [1]: resistance
Response of cells to G418 [2]: sensitivity

Molecule: CC1=C(/C=C/C(C)=C/C=C/C(C)=C/C(=O)O)C(C)(C)CCC1 [Retinoic acid]
MUC2 expression in response to RA [3]: no effect

Activation (phosphorylation) of MEK1/2 [4]: activates
Molecule: IL-1 alpha: cytokine used to treat HMEEC-1 cells
